The values below come from patent US5212201A, “Xanthine oxidase inhibitor” (priority 1989, dated 1993).

One series has as its target xanthine oxidase (Bos taurus, UniProt P80457). Nature of the series: xanthine oxidase inhibitory activity (absorbance at 290 nm, xanthine substrate). Particulars: for activity compared with known xanthine oxidase inhibitors allopurinol, luteolin / activity compared with quercetin: as seen from Table 1; for Total activity: purification from Perilla frutescens (3.73 kg fresh weight); for Total activity / Specific activity: 1 U = activity required for inhibiting 50% of xanthine oxidase; for Specific activity: purification from Perilla frutescens; for Relative intensity: relative to 1.00 (XOI-A and allopurinol), from concentration for 50% inhibitory rate. Type of series: biochemical. On the procedure: This xanthine oxidase inhibitory activity can be determined, for example, as follows:
Enzyme solution: An enzyme solution is prepared by dissolving 150 μl of xanthine oxidase (15.2 units/ml) in 10 ml of 1/15 M phosphate buffer (pH 7.5).
Substrate solution: A substrate solution is prepared by heating 22.8 mg of xanthine in 1 liter of water to dissolve it.
Determination: 0.1 ml of the enzyme solution and 2.9 ml of phosphate buffer (the same as that described above) are admixed with 1.0 ml of the sample solution and the mixture is incubated at 37° C. for 10 minutes.
Then, 1 ml of the substrate solution preincubated at 37° C. is added to this reaction mixture and, after reaction for 30 minutes, an absorbance at 290 nm (D1) is measured.
Separately, an absorbance at 290 nm (D2) of a reaction mixture obtained by the similar reaction procedure using a heat inactivated enzyme, an absorbance (D3) without addition of the sample solution, and absorbance (D4) of a reaction mixture obtained by using a heat-inactivated enzyme without addition of the sample solution are measured. By using the values obtained by these measurements, the inhibitory rate of xanthine oxidase is calculated by using the following equation:
Inhibitory Rate (%)={1-(D1 -D2)/(D3 -D4 }×100
In Table 2, 1 U represents the activity required for inhibiting 50% of xanthine oxidase.

The next series is described as follows: solubility in solvents. It is filed as physicochemical.
Where [1] appears, read: xanthine oxidase, pH 7.5, 37° C., reaction for 30 minutes, read-out: Concentration for 50% inhibitory rate (converted).

Where two headings read alike, the source gives them in different places.

Chain of xanthine oxidase (P80457 whole entry): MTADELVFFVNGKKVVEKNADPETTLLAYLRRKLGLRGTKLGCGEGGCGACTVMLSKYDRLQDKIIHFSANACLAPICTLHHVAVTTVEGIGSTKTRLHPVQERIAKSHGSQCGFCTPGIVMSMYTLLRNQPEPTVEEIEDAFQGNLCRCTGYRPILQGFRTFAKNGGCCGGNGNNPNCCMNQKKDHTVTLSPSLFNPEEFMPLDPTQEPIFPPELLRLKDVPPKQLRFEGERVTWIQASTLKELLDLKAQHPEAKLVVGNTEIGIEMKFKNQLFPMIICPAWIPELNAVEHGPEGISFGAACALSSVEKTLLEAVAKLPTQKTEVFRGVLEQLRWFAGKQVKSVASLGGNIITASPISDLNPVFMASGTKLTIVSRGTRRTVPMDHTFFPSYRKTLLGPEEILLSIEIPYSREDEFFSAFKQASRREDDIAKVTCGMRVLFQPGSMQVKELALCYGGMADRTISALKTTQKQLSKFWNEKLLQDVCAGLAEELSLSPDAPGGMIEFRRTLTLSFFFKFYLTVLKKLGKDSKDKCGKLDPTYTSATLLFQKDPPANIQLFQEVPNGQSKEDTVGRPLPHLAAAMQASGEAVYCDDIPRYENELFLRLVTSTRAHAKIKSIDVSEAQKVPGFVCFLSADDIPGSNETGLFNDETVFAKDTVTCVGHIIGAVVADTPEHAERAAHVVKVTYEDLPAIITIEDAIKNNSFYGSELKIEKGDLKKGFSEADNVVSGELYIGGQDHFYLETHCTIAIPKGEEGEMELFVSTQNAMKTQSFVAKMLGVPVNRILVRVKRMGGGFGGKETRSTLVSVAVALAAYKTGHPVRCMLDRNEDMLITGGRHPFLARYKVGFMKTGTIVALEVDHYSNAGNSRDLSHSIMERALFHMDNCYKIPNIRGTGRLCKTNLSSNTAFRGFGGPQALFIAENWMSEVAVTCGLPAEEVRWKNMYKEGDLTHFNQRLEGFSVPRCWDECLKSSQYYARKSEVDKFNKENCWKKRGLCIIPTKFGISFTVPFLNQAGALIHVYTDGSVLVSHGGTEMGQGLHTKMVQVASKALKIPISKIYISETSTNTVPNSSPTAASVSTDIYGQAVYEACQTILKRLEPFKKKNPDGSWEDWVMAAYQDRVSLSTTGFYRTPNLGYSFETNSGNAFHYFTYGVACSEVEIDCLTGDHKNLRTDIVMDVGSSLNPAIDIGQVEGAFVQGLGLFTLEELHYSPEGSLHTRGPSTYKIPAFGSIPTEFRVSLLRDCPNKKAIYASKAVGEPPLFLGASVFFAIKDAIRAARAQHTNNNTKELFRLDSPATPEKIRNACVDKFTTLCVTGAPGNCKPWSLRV

Regarding `O=C(/C=C/c1ccc(O)c(O)c1)O/C=C\c1cc(O)cc(O)c1` [XOI-B, (Z,E)-2-(3,5-dihydroxyphenyl)ethenylester of 3-(3,4-dihydroxyphenyl)-2-propenoic acid], on xanthine oxidase, the “activity compared with known xanthine oxidase inhibitors allopurinol, luteolin” value was “almost the same as that of luteolin”; the “activity compared with quercetin” value is reported as “superior to that of quercetin”; the Total activity is recorded as 0.09 × 10^6 (U); the Specific activity is 8040 μ/mg. On xanthine oxidase, this compound had a Relative intensity of 0.17. Also, the “Specific activity, figure in parentheses (relative to ethanol extract = 1)” value on xanthine oxidase (purification step) is 38. Besides, the IC50 on xanthine oxidase (setting [1]) is 0.395 µM. In the series “solubility in solvents”, the “solubility in methanol, propanol, acetone, ethyl acetate or acetonitrile” value is “readily soluble” and the “solubility in water, chloroform or hexane” value was “slightly soluble”.
At xanthine oxidase, `O=c1cc(-c2ccc(O)c(O)c2)oc2cc(O)cc(O)c12` [Luteolin, luteolin, reference compound] had an IC50 of 0.384 µM and a Relative intensity of 0.19.
As to `O=C(/C=C/c1ccc(O)c(O)c1)O/C=C\c1ccc(O)c(O)c1` [XOI-A, (Z,E)-2-(3,4-dihydroxyphenyl)ethenylester of 3-(3,4-dihydroxyphenyl)-2-propenoic acid], on xanthine oxidase, the “activity compared with known xanthine oxidase inhibitors allopurinol, luteolin” value is recorded as “comparable to that of allopurinol”; the “activity compared with quercetin” value was “superior to that of quercetin”; the Total activity is recorded as 1.96 × 10^6 (U); the Specific activity is 46600 μ/mg. The “Specific activity, figure in parentheses (relative to ethanol extract = 1)” value on xanthine oxidase (purification step) is listed as 222. Further, the “Total activity, figure in parentheses (relative to ethanol extract = 100)” value on xanthine oxidase (purification step, ethanol extract = 100) came out at 6. Further, the IC50 on xanthine oxidase (setting [1]) is 0.0668 µM. Further, in the series “solubility in solvents”, the “solubility in methanol, propanol, acetone, ethyl acetate or acetonitrile” value was “readily soluble” and the “solubility in water, chloroform or hexane” value is “slightly soluble”.
